Data from patent publication US9945860B2, “Nicotinamide adenine dinucleotide indicators, methods of preparation and application thereof” (East China University of Science and Technology, priority 2011, dated 2018).
Where “and” joins values, the source holds several entries; their conditions need not be identical. Identical values can stand only once.

Tests used:
[1] = test system: NADH levels in mitochondria; test: Real-time detection of mitochondrial NADH when respiratory chain complexes are inhibited; format: cell-based; conditions: for fluorescence (ex 485, em 528) of the sensor in mitochondria: treated for 30 min
Experimental: NADH that produced via glycolysis pathway and tricarboxylic acid cycle pathway will be oxidized by the oxidative phosphorylation pathway of mitochondrial respiratory chain, and then generate ATP to provide energy for various life activities. Fluorescent sensors for nicotinamide adenine dinucleotide were used to measure changes of NADH levels in mitochondria when various complexes in the respiratory chain were inhibited. […] Time interval between the figures was 1 min. The cells were observed before and after treatment under a laser scanning confocal microscope (Nikon, Japan). […].

[2] = test system: 293FT cells; test: Real-time measurement of intracellular NADH after adding external NADH to the culture medium; format: cell-based
Excerpt: As described in Example 7, the fluorescence sensors for reduced nicotinamide adenine dinucleotide were expressed in different subcellular organelles of 293FT cells. […] Following the addition of external NADH into cell culture medium, transfected cells were observed under a laser scanning confocal microscope (Nikon, Japan). […] As to the control group in comparison, the cpYFP presented alone was not affected by extra NADH either. Therefore, effects of pH and the variation in cpYFP per se by environmental changes could be excluded. This series of sensors were further utilized to detect influences of extra NADH on other organelles, and observed that extra NADH could also increase the NADH levels in nucleus and mitochondria, the results for nucleus study are shown in FIG. 8-1B, and those for mitochondria study are shown in FIG. 8-1C.

[3] = test system: H1299 tumor cells; test: In vivo imaging of NADH metabolism in H1299-superFrex tumors; design: species or system nude mice; conditions: 300 μl sodium pyruvate (100 mM) via the tail vein
Experimental: H1299 tumor cells were transfected with pcDNA3.1-cyt-superFrex, and then screened under Hygromycin B for 2 weeks. […] Male nude mice of 5-6 weeks old were subcutaneously injected with 200 μl of H1299-superFrex cell suspension (1.0×10^7 cells) into their right armpits and housed for 3-4 weeks at SPF Animal facility, tumors in the nude mice grew to 0.6-1.0 cm. The nude mice were anaesthetized and then injected with 300 μl of sodium pyruvate (100 mM) via the tail vein. Effects of the agent on tumor metabolism were observed immediately with Kodak multifunctional vivo imaging system (Carestream, USA). […] Over time, pyruvate was gradually consumed metabolically, and the ratio of NADH/NAD^+ in tumor cells resumed the initial level (FIG. 12-C). In summary, superFrex, the fluorescent sensor for reduced/oxidized nicotinamide adenine dinucleotide ratio, works well in real-time monitoring of the NADH metabolism in tumor tissues.

[4] = Spectral characteristics of fluorescent sensors (excitation and emission spectra); format: physicochemical; conditions: 10 μM sensor in 100 mM KPi, pH7.4
Experimental: The fluorescent sensors that prepared above were dissolved in assay buffer (100 mM KPi, pH7.4) to formulate fluorescent sensor solutions to a final concentration of 10 μM. Then their absorption spectra were measured using a Multi-functional Fluorescence Microplate Reader (Synergy2, Biotek) (FIG. 3A).
Their excitation and emission spectra were determined using a fluorescence spectrophotometer (Cary Eclipse Fluorescence spectrophotometer, Varian) (FIG. 3B).

[5] = test system: NADH levels in different subcellular compartments; test: Real-time measurement of NADH levels regulated by glucose, pyruvate and lactate; format: cell-based
Excerpt: Glycolysis is an important pathway of producing NADH and it plays a vital role in regulating intracellular NADH levels. The nicotinamide adenine dinucleotide fluorescent sensors were used to test how several important metabolites in this pathway, glucose, pyruvate and lactate, would influence the NADH levels in different subcellular compartments. […] As products of glycolysis pathway, pyruvate and lactate are presented in the cytoplasm with a dynamic balance between them. At increased intracellular levels of pyruvate, lactate dehydrogenase consumes NADH and produces lactate and NAD^+, and in turn, leads to the decrease of NADH levels in cytoplasm. At increased intracellular levels of lactate, lactate dehydrogenase consumes NAD^+ and produces pyruvate and NADH, and in turn, leads to the increase of NADH levels in cytoplasm.

In the case of “cpYFP: circular permutation yellow fluorescent protein, control protein, SEQ ID NO: 22”, the “control protein expressed in mitochondria upon 3-NP treatment” value ([1]; 6-minute profile) is reported as “no obvious change”, the “effect of extra NADH on control protein presented alone” value ([2]; 293FT cells) is reported as “not affected” and the “control tumor cells expressing cpYFP, change caused by pyruvate” value [3] is reported as “no difference”.
For NC(=O)C1=CN([C@@H]2O[C@H](COP(=O)(O)OP(=O)(O)OC[C@H]3O[C@@H](n4cnc5c(N)ncnc54)[C@H](O)[C@@H]3O)[C@@H](O)[C@H]2O)C=CC1 [NADH, reduced nicotinamide adenine dinucleotide], the “intracellular NADH levels” value ([2]; external NADH added to medium) was “immediate increase” and the “NADH levels in nucleus and mitochondria” value ([2]; extra NADH) was “increase”.
For C=C(C)[C@H]1Cc2c(ccc3c2O[C@@H]2COc4cc(OC)c(OC)cc4[C@@H]2C3=O)O1 [rotenone], the “fluorescence (ex 485, em 528) of the sensor in mitochondria” value [1] was “increased”.
In the case of “F-rex2: sensor from pRSETb-ydiH(189)-YFP-ydiH(190), Thermus aquaticus YdiH with cpYFP inserted, SEQ ID NO: 8”, the emission peak [4] is reported as 518 nm, the excitation peaks [4] is reported as 410 nm and 500 nm and the “intensity of the latter excitation peak relative to the former” value [4] is reported as “about half”.
In the case of O=C(O)CC[N+](=O)[O-] [3-NP], the “NADH levels in mitochondria” value ([1]; NADH sensor expressed in mitochondria, 6-minute profile) is reported as “greatly decline”.
With antimycin A the “fluorescence (ex 485, em 528) of the sensor in mitochondria” value [1] was “increased”.
With CC(O)C(=O)O (stereo not drawn) [lactate] the “NADH levels in cytoplasm” value [5] was “rapid increase”.
